pIC50: −log10 of the molar value.
Target: T1, RORc ligand binding domain (Homo sapiens, UniProt P51449)
T1 construct: host or cells: E. coli
T1 sequence (P51449 269-508 limits assumed): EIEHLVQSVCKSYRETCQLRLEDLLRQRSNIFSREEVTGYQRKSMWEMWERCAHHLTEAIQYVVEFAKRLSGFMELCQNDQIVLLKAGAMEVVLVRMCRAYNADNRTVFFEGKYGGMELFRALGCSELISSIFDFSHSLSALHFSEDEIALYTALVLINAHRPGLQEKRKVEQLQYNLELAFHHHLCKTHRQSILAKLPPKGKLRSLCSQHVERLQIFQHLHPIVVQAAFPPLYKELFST
Assay: In Vitro RORc Ligand Binding Assay
Conditions: radioligand 25-[3H]hydroxycholesterol 6 nM; 0.6 ug/mL RORc receptor; 3 h at 25° C.; read-out: IC50 values (micromolar) for RORc affinity
Experimental: This assay was used to determine a compound's potency in inhibiting activity of RORc by determining, Kiapp, IC50, or percent inhibition values.
On day of the assay, 100 uL of 0.05% CHAPS (in deionized H2O) was added to all wells of the GFB Unifilter plate and allowed soak for 1 h. A wash buffer of 50 mM HEPES (pH 7.4), 150 mM NaCl, and 5 mM MgCl2 was prepared to wash the filter plate. To prepare an assay buffer, BSA was added to the wash buffer to reach 0.01% and DTT was added to reach 1 mM.
The 20× compound stocks were diluted in DMSO with Assay Buffer 4-fold to reach 5× the final test concentration in 25% DMSO (10 uL compound+30 uL Assay Buffer). Solutions were mixed by aspiration several times with a pipette set on 50 uL volume. For the assay, 10 uL of 5× compound stock solutions in 25% DMSO were added to the assay plate in duplicate.
For two point screening, 10 mM stock compound solutions were diluted in DMSO to obtain 200 uM (20× the high test concentration) and then diluted 10-fold further to reach 20 uM (20× the low test concentration). The 20× stocks were diluted 4-fold with Assay Buffer (10 uL compound+30 uL Assay Buffer) to reach 5× the test concentrations (50 uM and 5 uM) and 10 uL were added to two assay plates for the duplicate wells. With each concentration tested on 2 plates, each set of 80 compounds used 4 assay plates (1 uM and 10 uM, with n=2).
For 25-hydroxycholesterol in 25% DMSO/75% Assay Buffer; 10 uL per well was used for NSB samples. Wells for Total Binding and No Receptor sample determination contained 10 uL of 25% DMSO/75% Assay Buffer per well.
Radioligand (25-[^3H]hydroxycholesterol) Preparation
Added 20 uL to all wells to reach 6 nM final in the assay.
Stock receptor solution was diluted in assay buffer to obtain 1.5 ug/mL in Assay Buffer. 20 uL was added to all wells. For No R samples, 20 uL Assay Buffer was substituted for receptor solution.
Assay plates were 96-well polypropylene V-bottom plates. 10 uL of 5× compound in 25% DMSO/75% Assay Buffer was added to Test wells. 10 uL of 25% DMSO/75% Assay Buffer was added to Total Binding or No Receptor wells. 10 uL of 5 uM 25-hydroxycholesterol in 25% DMSO/75% Assay Buffer was added to NSB wells. […] 20 uL of 1.5 ug/mL RORc receptor was added to wells (or 40 uL Assay Buffer to No R wells). Following addition to the wells, the plates were incubated 3 h at 25° C.
Using a Packard Filtermate Harvester, the filter plates were washed 4 times following transfer of the incubated samples. Plates were dry-filtered completely (2 h at 50° C. or overnight at room temperature). 50 uL Microscint 0 was added to all wells and read on Topcount protocol Inverted.
Final concentrations were as follows: 50 mM HEPES buffer (pH 7.4); 150 mM NaCl; 1 mM DTT; 5 mM MgCl2; 0.01% BSA; 5% DMSO; 0.6 ug/mL RORc receptor; 6 nM 25-[^3H]hydroxycholesterol. For NSB wells, 1 uM 25-hydroxycholesterol was also present.

| SMILES | pIC50 |
| --- | --- |
| CC(C)CN(Cc1ccc(-c2cccc(S(C)(=O)=O)c2)s1)S(=O)(=O)c1cccnc1 [Compound 62, Pyridine-3-sulfonic acid isobutyl-[5-(3-methanesulfonyl-phenyl)-thiophen-2-ylmethyl]-amide] | 5.38 |
| CC(C)CN(Cc1ccc(-c2cc(F)c(CO)c(S(C)(=O)=O)c2)s1)S(=O)(=O)Cc1ccccc1 [Compound 63, N-((5-(3-fluoro-4-(hydroxymethyl)-5-(methylsulfonyl)phenyl)thiophen-2-yl)methyl)-N-isobutyl-1-phenylmethanesulfonamide] | 5.30 |
| CC(C)CN(Cc1ncc(-c2ccc(S(C)(=O)=O)c(F)c2)s1)S(=O)(=O)Cc1ccccc1 [Compound 64, N-((5-(3-fluoro-4-(methylsulfonyl)phenyl)thiazol-2-yl)methyl)-N-isobutyl-1-phenylmethanesulfonamide] | 5.70 |
| CC(C)CN(Cc1ccc(-c2ccc(S(C)(=O)=O)cc2)cn1)S(=O)(=O)Cc1ccccc1 [Compound 65, N-isobutyl-N-((5-(4-(methylsulfonyl)phenyl)pyridin-2-yl)methyl)-1-phenylmethanesulfonamide] | 5.70 |
| CC(C)CN(Cc1ccc(-c2ccc(S(C)(=O)=O)cc2)nc1)S(=O)(=O)Cc1ccccc1 [Compound 66, N-isobutyl-N-((6-(4-(methylsulfonyl)phenyl)pyridin-3-yl)methyl)-1-phenylmethanesulfonamide] | 6.11 |
| CC(C)CN(Cc1cccc(-c2cccc(S(C)(=O)=O)c2)c1)S(=O)(=O)Cc1ccccc1 [Compound 67, N-isobutyl-N-((3′-(methylsulfonyl)-[1,1′-biphenyl]-3-yl)methyl)-1-phenylmethanesulfonamide] | 5.52 |
| CC(C)CN(Cc1csc(-c2ccc(S(C)(=O)=O)cc2)c1)S(=O)(=O)Cc1ccccc1 [Compound 68, N-isobutyl-N-((5-(4-(methylsulfonyl)phenyl)thiophen-3-yl)methyl)-1-phenylmethanesulfonamide] | 6.49 |
| CC(C)CN(Cc1ccc(-c2ccc(S(C)(=O)=O)cc2)c(C#N)c1)S(=O)(=O)Cc1ccccc1 [Compound 69, N-((2-cyano-4′-(methylsulfonyl)-[1,1′-biphenyl]-4-yl)methyl)-N-isobutyl-1-phenylmethanesulfonamide] | 7.13 |
